Biological target: bovine carbonic anhydrase (Bos taurus, UniProt P00921)
Assay: Inhibition of bovine carbonic anhydrase esterase activity (hydrolysis of p-nitrophenyl acetate, UV 348 nm)
Conditions: for % inhibition of the hydrolysis of nitrophenyl acetate (NPA) catalyzed by carbonic anhydrase: 25° C.; for inhibition with respect to carboanhydrase, in words: comparable with or even superior to that of acetazolamide

Sequence of bovine carbonic anhydrase (P00921 whole entry): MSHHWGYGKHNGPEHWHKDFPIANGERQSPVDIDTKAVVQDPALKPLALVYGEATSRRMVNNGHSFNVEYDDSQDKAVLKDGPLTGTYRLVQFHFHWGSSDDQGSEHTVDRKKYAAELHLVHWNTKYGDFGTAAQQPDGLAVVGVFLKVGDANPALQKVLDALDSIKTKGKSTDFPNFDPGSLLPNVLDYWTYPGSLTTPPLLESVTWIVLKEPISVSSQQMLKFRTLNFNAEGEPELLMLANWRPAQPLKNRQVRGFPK

NS(=O)(=O)CCC(F)(F)C(F)(F)C(F)(F)C(F)(F)C(F)(F)C(F)(F)C(F)(F)C(F)(F)F [C8F17(CH2)2SO2NH2]
% inhibition of the hydrolysis of nitrophenyl acetate (NPA) catalyzed by carbonic anhydrase (inhibitor 1.35 10^−6 mol/l): 36%

NS(=O)(=O)C(F)(F)C(F)(F)C(F)(F)C(F)(F)S(N)(=O)=O [(C2F4SO2NH2)2, perfluorobutane-1,4-disulfamide]
inhibition with respect to carboanhydrase, in words: very considerable inhibition
% inhibition of the hydrolysis of nitrophenyl acetate (NPA) catalyzed by carbonic anhydrase (inhibitor 1.35 10^−6 mol/l): 78%
% inhibition of the hydrolysis of nitrophenyl acetate (NPA) catalyzed by carbonic anhydrase (inhibitor 1.35 10^−7 mol/l): 6%
% inhibition of the hydrolysis of nitrophenyl acetate (NPA) catalyzed by carbonic anhydrase (inhibitor 1.35 10^−8 mol/l): 1%

O=S(=O)(NS(=O)(=O)C(F)(F)C(F)(F)C(F)(F)C(F)(F)C(F)(F)C(F)(F)C(F)(F)C(F)(F)F)C(F)(F)C(F)(F)C(F)(F)C(F)(F)C(F)(F)C(F)(F)C(F)(F)C(F)(F)F [(C8F17SO2)2NH]
% inhibition of the hydrolysis of nitrophenyl acetate (NPA) catalyzed by carbonic anhydrase (inhibitor 1.35 10^−4 mol/l): 89%
% inhibition of the hydrolysis of nitrophenyl acetate (NPA) catalyzed by carbonic anhydrase (inhibitor 1.35 10^−6 mol/l): 0%

O=S(=O)(NS(=O)(=O)C(F)(F)C(F)(F)C(F)(F)C(F)(F)C(F)(F)C(F)(F)F)C(F)(F)C(F)(F)C(F)(F)C(F)(F)C(F)(F)C(F)(F)F [(C6F13SO2)2NH, bis(1,1,2,2,3,3,4,4,5,5,6,6,6)tridecafluoro-n-hexylsulfinimide]
% inhibition of the hydrolysis of nitrophenyl acetate (NPA) catalyzed by carbonic anhydrase (inhibitor 1.35 10^−4 mol/l): 85%
% inhibition of the hydrolysis of nitrophenyl acetate (NPA) catalyzed by carbonic anhydrase (inhibitor 1.35 10^−6 mol/l): 0%

O=S(=O)(NS(=O)(=O)C(F)(F)C(F)(F)C(F)(F)C(F)(F)F)C(F)(F)C(F)(F)C(F)(F)C(F)(F)F [(C4F9SO2)2NH]
% inhibition of the hydrolysis of nitrophenyl acetate (NPA) catalyzed by carbonic anhydrase (inhibitor 1.35 10^−4 mol/l): 65%
% inhibition of the hydrolysis of nitrophenyl acetate (NPA) catalyzed by carbonic anhydrase (inhibitor 1.35 10^−6 mol/l): 0%

O=S(=O)(NS(=O)(=O)C(F)(F)C(F)(F)C(F)(F)C(F)(F)C(F)(F)C(F)(F)F)C(F)(F)C(F)(F)C(F)(F)C(F)(F)F [(C6F13SO2)NH(C4F9SO2)]
% inhibition of the hydrolysis of nitrophenyl acetate (NPA) catalyzed by carbonic anhydrase (inhibitor 1.35 10^−4 mol/l): 87%
% inhibition of the hydrolysis of nitrophenyl acetate (NPA) catalyzed by carbonic anhydrase (inhibitor 1.35 10^−6 mol/l): 0%

CCCCCCS(N)(=O)=O [Example C6H13SO2NH2, n-hexanesulfamide, reference compound]
% inhibition of the hydrolysis of nitrophenyl acetate (NPA) catalyzed by carbonic anhydrase (inhibitor 1.35 10^−4 mol/l): 73%
% inhibition of the hydrolysis of nitrophenyl acetate (NPA) catalyzed by carbonic anhydrase (inhibitor 1.35 10^−6 mol/l): 0%

O=S(=O)(NS(=O)(=O)C(F)(F)C(F)(F)C(F)(F)C(F)(F)C(F)(F)C(F)(F)C(F)(F)C(F)(F)F)C(F)(F)C(F)(F)C(F)(F)C(F)(F)F [(C4F9SO2)NH(C8F17SO2)]
% inhibition of the hydrolysis of nitrophenyl acetate (NPA) catalyzed by carbonic anhydrase (inhibitor 1.35 10^−4 mol/l): 97%
% inhibition of the hydrolysis of nitrophenyl acetate (NPA) catalyzed by carbonic anhydrase (inhibitor 1.35 10^−6 mol/l): 0%

NS(=O)(=O)C(F)(F)C(F)(F)C(F)(F)C(F)(F)C(F)(F)C(F)(F)C(F)(F)F [Example C7F15SO2NH2]
% inhibition of the hydrolysis of nitrophenyl acetate (NPA) catalyzed by carbonic anhydrase (inhibitor 1.35 10^−6 mol/l): 80%
% inhibition of the hydrolysis of nitrophenyl acetate (NPA) catalyzed by carbonic anhydrase (inhibitor 1.35 10^−7 mol/l): 0%

[NH-]S(=O)(=O)C(F)(F)C(F)(F)C(F)(F)C(F)(F)C(F)(F)C(F)(F)C(F)(F)C(F)(F)F.[Na+] [C8F17SO2NH^−+Na, sodium 1,1,2,2,3,3,4,4,5,5,6,6,7,7,8,8,8-heptadecafluoro-n-octylsulfamide anion]
inhibition with respect to carboanhydrase, in words: very considerable inhibition
% inhibition of the hydrolysis of nitrophenyl acetate (NPA) catalyzed by carbonic anhydrase (inhibitor 1.35 10^−6 mol/l): 94%
% inhibition of the hydrolysis of nitrophenyl acetate (NPA) catalyzed by carbonic anhydrase (inhibitor 1.35 10^−7 mol/l): 40%
% inhibition of the hydrolysis of nitrophenyl acetate (NPA) catalyzed by carbonic anhydrase (inhibitor 1.35 10^−8 mol/l): 17%

CCCCCCCCS(N)(=O)=O [Example C8H17SO2NH2, n-octanesulfamide, reference compound]
% inhibition of the hydrolysis of nitrophenyl acetate (NPA) catalyzed by carbonic anhydrase (inhibitor 1.35 10^−4 mol/l): 86%
% inhibition of the hydrolysis of nitrophenyl acetate (NPA) catalyzed by carbonic anhydrase (inhibitor 1.35 10^−6 mol/l): 5%

O=S(=O)(NS(=O)(=O)C(F)(F)C(F)(F)C(F)(F)C(F)(F)C(F)(F)C(F)(F)C(F)(F)C(F)(F)F)C(F)(F)C(F)(F)C(F)(F)C(F)(F)C(F)(F)C(F)(F)F [(C8F17SO2)NH(C6F13SO2)]
% inhibition of the hydrolysis of nitrophenyl acetate (NPA) catalyzed by carbonic anhydrase (inhibitor 1.35 10^−4 mol/l): 87%
% inhibition of the hydrolysis of nitrophenyl acetate (NPA) catalyzed by carbonic anhydrase (inhibitor 1.35 10^−6 mol/l): 0%

[Li+].[NH-]S(=O)(=O)C(F)(F)C(F)(F)C(F)(F)C(F)(F)C(F)(F)C(F)(F)C(F)(F)C(F)(F)F [C8F17SO2NH^−+Li]
% inhibition of the hydrolysis of nitrophenyl acetate (NPA) catalyzed by carbonic anhydrase (inhibitor 1.35 10^−6 mol/l): 85%
% inhibition of the hydrolysis of nitrophenyl acetate (NPA) catalyzed by carbonic anhydrase (inhibitor 1.35 10^−7 mol/l): 3%

NS(=O)(=O)C(F)(F)C(F)(F)C(F)(F)C(F)(F)C(F)(F)C(F)(F)C(F)(F)C(F)(F)F [Example C8F17SO2NH2, 1,1,2,2,3,3,4,4,5,5,6,6,7,7,8,8,8-heptadecafluoro-octanesulfamide]
inhibition with respect to carboanhydrase, in words: very considerable inhibition
% inhibition of the hydrolysis of nitrophenyl acetate (NPA) catalyzed by carbonic anhydrase (inhibitor 1.35 10^−6 mol/l): 88%
% inhibition of the hydrolysis of nitrophenyl acetate (NPA) catalyzed by carbonic anhydrase (inhibitor 1.35 10^−7 mol/l): 7%
% inhibition of the hydrolysis of nitrophenyl acetate (NPA) catalyzed by carbonic anhydrase (inhibitor 1.35 10^−8 mol/l): 5%

From patent publication US20080015255A1, “Pharmaceutical Compositions Based on Fluorinated Sulphamides and Sulphinimides” (CENTRE NATIONAL DE LA RECHERCHE SCIENTIFIQUE(C.N.R.S.), priority 2004, published 2008)
